Test results from patent US11911396B2, “Use of compound in preparation of drug for treating cerebral small vessel disease” (GUANGZHOU CELLPROTEK PHARMACEUTICAL CO., LTD, priority 2017, dated 2024).

Test system: CD163
Assay: Immunofluorescence of CD163 in prefrontal cortex brain tissue, acute hypobaric hypoxia model
Assay type: in vivo, cynomolgus monkeys
Settings: FIGS. 5A and 5B
Description: FIG. 5. […] A. Immunofluorescence imaging of CD163 and Iba-1 in the brain tissue of cynomolgus monkeys. B. Statistics of relative fluorescence intensity of CD163 and Iba-1. C. Correlation analysis of relative fluorescence intensity of CD163 and Iba-1. NN: Normobaric Normoxia group; HH: Hypobaric Hypoxia group; HH+Triol: Hypobaric Hypoxia with Triol administration group; HH+PROG: Hypobaric Hypoxia with progesterone administration group. One-way ANOVA analysis and Dunnutt's t test were used to perform statistical tests, and in the latter each group was compared with the HH group, ***, p<0.001.
The thickness of paraffin sections was 5 μm. For fresh paraffin sections, the sections were dried at 37° C. overnight and then dried at 55° C. for 30 minutes. The sections were quickly placed in xylene for dewaxing. After fully dewaxing with xylene for 10 min for 3 times, absolute ethanol-95% ethanol-90% ethanol-80% ethanol-70% ethanol-50% ethanol-ddH2O were successively used for gradient rehydration. After rehydration, the sections were placed in EDTA antigen repair solution for microwave high temperature repair. After the repair was completed, it was allowed naturally cool down to room temperature. […] NIS-Elements Analysis software was used to analyze the fluorescence intensity of confocal images, which was then normalized with the fluorescence intensity per unit area according to the built-in scale. […]

SMILES: C[C@@]12CCCC1C1C[C@@H](O)[C@@]3(O)C[C@@H](O)CC[C@]3(C)C1CC2 (stereo partly drawn) [Triol, 5α-androst-3β,5,6β-triol]
- down-regulation of CD163 expression caused by acute hypobaric hypoxia: significantly restored
